Assay results reported in patent US20240368163A1, “COMPOUNDS AND METHODS FOR MODULATING SPLICING” (REMIX THERAPEUTICS INC., priority 2021, published 2024).

Assays:
[1] = Transwell assay for membrane efflux and permeability; format: in vitro ADME, Canine; conditions: dog; MDCK-BCRP or MDCKII-MDR1 transwell, test compound 1 μM, 2 hours at 37° C.
Summary of the method: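 MDCK-BCRP or MDCKII-MDR1 monolayers grown 4-8 days on transwell supports, washed and pre-equilibrated in HBSS 30 min at 37 °C with shaking. Test compounds at 1 μM final (0.5% DMSO) in HBSS; transport incubation 2 h at 37 °C.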

HTT = test: Splicing RT-qPCR assay, HTT mRNA canonical junction (CJ) and alternative junction (AJ); format: cell-based, human; conditions: Homo sapiens, gene panel, CJ qPCR, protocol of Example 142; read-out: HTT IC50 (decrease in CJ mRNA levels)
Summary of the method: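 A673 or K562 cells were treated 24 h at 37 °C with an 11-point 3-fold dilution series (top 10 uM final, DMSO ≤0.25%). Lysates underwent one-step RT-qPCR for canonical (CJ) and alternative (AJ) junctions; Ct normalized to GAPDH, GUSB or PPIA and DMSO control via 2^(−ΔΔCt), expressed as percentage response.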

For `COc1nc(-c2ccc(OC3CC4CC(F)(F)C(C3)N4)nn2)cc(F)c1-c1cn[nH]c1` (stereo not drawn) [Compound 969], the Papp at 2 h, 1 μM [1] was 2 to 6 ×10⁻⁶ cm/s, the efflux ratio at 2 h, 1 μM [1] was greater than 5 and the IC50 (HTT) was 1 to 10 µM.
